# From ChEMBL document CHEMBL3751774, “Synthesis and anti-tubercular activity of conformationally-constrained and bisquinoline analogs of TMC207” (Medchemcomm, 2015)
# The source made the active and inactive calls. The rule behind the calls is not given here.
# Assays:
# [1] = test system: Mycobacterium tuberculosis; assay: Antitubercular activity against Mycobacterium tuberculosis H37Rv assessed as growth inhibition by BACTEC assay; format: functional
# [2] = Cytotoxicity against African green monkey Vero C1008 cells assessed as reduction in cell viability after 24 hrs by MTS assay; format: cell-based; details: Chlorocebus sabaeus
# [3] = test system: Mycobacterium tuberculosis; assay: Antitubercular activity against Mycobacterium tuberculosis H37Rv assessed as growth inhibition after 4 weeks; format: functional; details: 672 h
# ATP synthase = assay: Inhibition of Mycobacterium tuberculosis ATP synthase; format: protein-complex assay
# [4] = Cytotoxicity against Swiss mouse BMDM assessed as reduction in cell viability after 24 hrs by MTS assay
# [5] = test system: Mycobacterium tuberculosis; assay: Antitubercular activity against Mycobacterium tuberculosis H37Rv infected in Swiss mouse assessed as mean survival time at 50 mg/kg, po 6 days/week for 28 days (reference value: 27.8 days); format: functional
# [6] = test system: Mycobacterium tuberculosis; assay: Antitubercular activity against Mycobacterium tuberculosis H37Rv infected in Swiss mouse assessed as reduction in colony forming units in lungs at 100 mg/kg, po 6 days/week for 28 days measured after 3 to 4 weeks relative to control; format: functional
# [7] = test system: Mycobacterium tuberculosis; assay: Antitubercular activity against Mycobacterium tuberculosis H37Rv infected in mouse BMDM assessed as reduction in colony forming units at 4 times MIC incubated for 4 days measured after 4 weeks relative to control; format: functional; set-up: scale not given: the % may be the effect or the level left
# [8] = test system: Mycobacterium tuberculosis; assay: Antitubercular activity against Mycobacterium tuberculosis H37Rv infected in Swiss mouse assessed as reduction in colony forming units in lungs at 50 mg/kg, po 6 days/week for 28 days measured after 3 to 4 weeks relative to control; format: functional
# [9] = test system: Mycobacterium tuberculosis; assay: Antitubercular activity against Mycobacterium tuberculosis H37Rv infected in Swiss mouse assessed as mean survival time at 100 mg/kg, po 6 days/week for 28 days (reference value: 27.8 days); format: functional
# [10] = test system: Mycobacterium tuberculosis; assay: Antitubercular activity against Mycobacterium tuberculosis H37Rv infected in human blood monocyte derived macrophages assessed as reduction in colony forming units at 4 times MIC incubated for 4 days measured after 4 weeks; format: functional, organism-based
# [11] = test system: Mycobacterium tuberculosis; assay: Antitubercular activity against Mycobacterium tuberculosis H37Rv infected in Swiss mouse assessed as mean survival time at 100 mg/kg, po for 28 days (reference value: 27.8 days); format: functional
# [12] = test system: Mycobacterium tuberculosis; assay: Antitubercular activity against Mycobacterium tuberculosis H37Rv infected in Swiss mouse assessed as reduction in colony forming units in lungs at 100 mg/kg, po for 28 days measured after 3 to 4 weeks relative to control; format: functional
# [13] = test system: Mycobacterium tuberculosis; assay: Antitubercular activity against Mycobacterium tuberculosis H37Rv infected in Swiss mouse assessed as mean survival time at 25 mg/kg, po for 28 days (reference value: 27.8 days); format: functional
# [14] = test system: Mycobacterium tuberculosis; assay: Antitubercular activity against Mycobacterium tuberculosis H37Rv infected in Swiss mouse assessed as reduction in colony forming units in lungs at 25 mg/kg, po for 28 days measured after 3 to 4 weeks relative to control; format: functional
Compound,MIC90 [1],MIC [3],IC50 (ATP synthase),also measured
COc1nc2ccc(Br)cc2cc1[C@H](c1ccccc1)[C@@]1(O)c2ccccc2CC[C@@H]1CN(C)C (racemic),> 50 µM,,,
COc1nc2ccccc2cc1C(c1cc2ccccc2nc1OC)C(O)(CCN(C)C)c1ccccc1 (stereo unspecified),,0.39 µM,70 nM,IC50 [2]: > 100000 nM; IC50 [4]: > 100000 nM; MST [5]: 29 days; fold change (FC) [6]: 808.22; Activity [7]: 90%; fold change (FC) [8]: 118; MST [9]: 25 days; Activity [10]: Active
COc1nc2ccc(Br)cc2cc1[C@H](c1ccccc1)[C@@]1(O)c2ccccc2C[C@@H]1CN(C)C (racemic),12.1 µM,,,
CO[C@H]1/C=C/O[C@@]2(C)Oc3c(C)c(O)c4c(O)c(c(/C=N/N5CCN(C)CC5)c(O)c4c3C2=O)NC(=O)/C(C)=C\C=C\[C@H](C)[C@H](O)[C@@H](C)[C@@H](O)[C@@H](C)[C@H](OC(C)=O)[C@@H]1C [RIFAMPIN],,,,Activity [7]: 98%
C=CCOc1nc2ccccc2cc1C(c1cc2ccccc2nc1OCC=C)C(O)(CCN(C)C)c1ccc(Br)cc1 (stereo unspecified),,> 50 µM,280 nM,
COc1nc2ccc(Br)cc2cc1[C@@H](c1ccccc1)[C@@]1(O)c2ccccc2OCC[C@@H]1CN(C)C (racemic),22.8 µM,,,
COc1nc2ccc(Br)cc2cc1[C@H](c1ccccc1)[C@@]1(O)c2cc(Cl)ccc2OCC[C@@H]1CN(C)C (racemic),> 50 µM,,,
COc1nc2ccc(Br)cc2cc1[C@@H](c1ccccc1)[C@@]1(O)c2ccccc2C[C@@H]1CN(C)C (racemic),48.3 µM,,,
COc1nc2ccc(Br)cc2cc1[C@@H](c1ccccc1)[C@@]1(O)c2ccc(Br)cc2C[C@@H]1CN(C)C (racemic),> 50 µM,,,
COc1nc2ccccc2cc1C(c1cc2ccccc2nc1OC)C(O)(CCN(C)C)c1cccc(Br)c1 (stereo unspecified),,1.56 µM,50 nM,IC50 [2]: > 100000 nM; IC50 [4]: > 100000 nM
COc1nc2ccc(Br)cc2cc1[C@@H](c1ccccc1)[C@@]1(O)c2cc(Br)ccc2CC[C@@H]1CN(C)C (racemic),> 50 µM,,,
COc1nc2ccc(Br)cc2cc1[C@@H](c1ccccc1)[C@@]1(O)c2ccccc2OC[C@@H]1CN(C)C (racemic),> 50 µM,,,
CC[C@@H](CO)NCCN[C@@H](CC)CO [ETHAMBUTOL],,,,MST [11]: 29 days; fold change (FC) [12]: 26.94
C=CCOc1nc2ccccc2cc1C(c1cc2ccccc2nc1OCC=C)C(O)(CCN(C)C)c1cccc(Br)c1 (stereo unspecified),,> 50 µM,30 nM,
COc1nc2ccccc2cc1C(c1cc2ccccc2nc1OC)C(O)(CCN(C)C)c1ccc2ccccc2c1 (stereo unspecified),,0.39 µM,30 nM,IC50 [2]: > 100000 nM; IC50 [4]: > 100000 nM; Activity [7]: 91%; Activity [10]: Active
C=CCOc1nc2ccccc2cc1C(c1cc2ccccc2nc1OCC=C)C(O)(CCN(C)C)c1ccccc1 (stereo unspecified),,> 50 µM,40 nM,
CN(C)CCC(O)(c1cccc(Br)c1)C1c2cc3ccccc3nc2OCC/C=C\CCOc2nc3ccccc3cc21 (stereo unspecified),,,10 nM,
COc1nc2ccccc2cc1C(c1cc2ccccc2nc1OC)C(O)(CCN(C)C)c1ccc(Br)cc1 (stereo unspecified),,0.66 µM,10 nM,IC50 [2]: > 100000 nM; IC50 [4]: > 100000 nM
COc1nc2ccc(Br)cc2cc1[C@@H](c1ccccc1)[C@@]1(O)c2cc(Cl)ccc2OCC[C@@H]1CN(C)C (racemic),> 50 µM,,,
C=CCCOc1nc2ccccc2cc1C(c1cc2ccccc2nc1OCCC=C)C(O)(CCN(C)C)c1ccc(Br)cc1 (stereo unspecified),,1.56 µM,80 nM,IC50 [2]: > 100000 nM; IC50 [4]: > 100000 nM
COc1nc2ccc(Br)cc2cc1[C@H](c1ccccc1)[C@@]1(O)c2cc(C)ccc2C[C@@H]1CN(C)C (racemic),12.5 µM,,,
COc1nc2ccc(Br)cc2cc1[C@H](c1ccccc1)[C@@]1(O)c2cc(Br)ccc2CC[C@@H]1CN(C)C (racemic),> 50 µM,,,
COc1nc2ccc(Br)cc2cc1[C@@H](c1ccccc1)[C@@]1(O)c2cc(C)ccc2C[C@@H]1CN(C)C (racemic),> 50 µM,,,
COc1nc2ccc(Br)cc2cc1[C@@H](c1ccccc1)[C@@]1(O)c2ccccc2CC[C@@H]1CN(C)C (racemic),> 50 µM,,,
COc1nc2ccc(Br)cc2cc1[C@@H](c1ccccc1)[C@@]1(O)c2ccccc2CCC[C@@H]1CN(C)C (racemic),45.8 µM,,,
NNC(=O)c1ccncc1 [ISONIAZID],,,,MST [13]: 29 days; fold change (FC) [14]: 257.08; Activity [7]: 98%
COc1nc2ccc(Br)cc2cc1[C@H](c1ccccc1)[C@@]1(O)c2ccc(Br)cc2C[C@@H]1CN(C)C (racemic),> 50 µM,,,
COc1nc2ccccc2cc1C(c1cc2ccccc2nc1OC)C(O)(CCN(C)C)c1cccc2ccccc12 (stereo unspecified),,0.7 µM,1 nM,IC50 [2]: > 100000 nM; IC50 [4]: > 100000 nM
COc1nc2ccc(Br)cc2cc1[C@H](c1ccccc1)[C@@]1(O)c2ccccc2OC[C@@H]1CN(C)C (racemic),> 50 µM,,,
